{"source": "patent US12048680B2", "about": "“Use of Gemfibrozil and derivative thereof for treatment and/or prevention of neurodegenerative disease” (Kunming Institute of Zoology Chinese Academy of Sciences, priority 2018, dated 2024)", "type_in_all_cases": "in vivo", "key": {"[1]": {"system": "PSD-95 protein", "experiment": "Immunohistochemical staining of mouse brain tissue for PSD-95", "conditions": "hippocampus of APP/PS1ΔE9 mice treated for 2 months (A-B in FIG. 3)"}, "[2]": {"system": "soluble Aβ", "experiment": "Western blot of soluble Aβ in mouse brain tissue", "protocol": "Gemfibrozil was administered to 8-month-old APP/PS1ΔE9 mice (male and female halves). Gemfibrozil was first dissolved in dimethyl sulfoxide (DMSO) at a concentration of 50 mg/mL, and then diluted to a final concentration of 50 μg/mL with mouse drinking water to obtain a drug solution. The mice in the administration group were allowed to freely drink the drug solution containing gemfibrozil, in which the final concentration of DMSO in the solution was 0.1%; and the mice in the control group were allowed to drink water containing 0.1% DMSO freely. All drinking devices contained with Gemfibrozil were wrapped in aluminum foil to prevent decomposition by exposure. During dosing, the drug solution was replaced every 2 days. Mice were measured daily for water consumption. After 2 months of dosing, all mice were subjected to behavioural experiments. Mice were placed in the laboratory to be behaviourally tested one hour prior to the start of daily behavioural studies, and all behavioural experiments were completed between 9 and 17 o'clock. All experiments involving animals were approved by Animal Ethics Committee of the Kunming Institute of Zoology, CAS.\n4. Expression of Related Proteins by Western Blot\nThe specific steps were as follows:\n1) Extracting protein: the protein was extracted from the mouse brain tissue using western and an IP lysate from Beyotime Biotechnology.\n2) Determining protein concentration: HM and U251-APP cells and mouse brain proteins were measured using a BCA protein quantification kit, and the extracted proteins were used for subsequent detection.\n3) Pretreatment before loading: each sample was loaded at 20 μg depending on the protein concentration. The protein denaturant anhydrous mercaptoethanol was first added to denature the proteins at 95° C. for 6 minutes. After denaturation, the sample was placed on ice and stood for 5 minutes.\n4) Loading and performing ectrophoresis: the denatured protein samples were loaded to the corresponding wells to start electrophoresis.\n5) Membrane transfer treatment: according to the ratio of the reagent required by 1 L of a membrane transfer solution (10× membrane transfer solution: anhydrous methanol:water=1:2:7), a certain amount of the membrane transfer solution was prepared, the sponge and filter paper were immersed in the membrane transfer solution, and the PVDF membrane was previously immersed in anhydrous methanol for 30 seconds to be activated. A membrane transfer plate was manufactured according to the sequence of sponge-filter paper-glue-membrane-filter paper-sponge (the protein was negatively charged, and was transferred to a PVDF membrane towards the positive electrode). […]"}, "[3]": {"system": "Aβ plaques", "experiment": "Immunohistochemical staining of Aβ plaques with Aβ (4G8) antibodies", "conditions": "brain tissue of APP/PS1ΔE9 mouse, vs control group (A-C in FIG. 5)"}, "[4]": {"conditions": "hippocampus and cortex of APP/PS1ΔE9 mice, Western blot (A-B in FIG. 4)"}}}
{"compound": "Cc1ccc(C)c(OCCCC(C)(C)C(=O)O)c1", "note": "[Gemfibrozil, 2,2-dimethyl-5-(2,5-dimethylphenoxy) pentanoic acid]", "values": [{"measurement": "PSD-95 immunoreactivity", "setting": "[1]", "value": "significantly up-regulated"}, {"measurement": "ratio of Aβ42 and Aβ40 (soluble)", "setting": "[2]; between groups, Western blot (A-B in FIG. 4)", "value": "did not change significantly"}, {"measurement": "level of Aβ40 (soluble)", "setting": "[2]; [4]", "value": "decreased significantly"}, {"measurement": "level of Aβ42 (soluble)", "setting": "[2]; [4]", "value": "decreased significantly"}, {"measurement": "soluble Aβ", "setting": "[2]; hippocampus and cortex of APP/PS1ΔE9 mice, vs control group (A-B in FIG. 4)", "value": "significantly reduced"}, {"measurement": "deposition of Aβ plaques labeled with Aβ (4G8) antibodies", "setting": "[3]", "value": "significantly reduced"}]}
